Results published in patent US20180215734A1, “PYRIMIDINE DERIVATIVES AS KINASE INHIBITORS AND THEIR THERAPEUTICAL APPLICATIONS” (NantBioScience, Inc., priority 2016, published 2018).

Assays:
[1] = target: FGFR1(h) (Homo sapiens, UniProt P11362); test: Kinase assay, FGFR1(h); type: biochemical; conditions: 1 μM
Experimental: (§1) Kinase assay protocols well known to those of ordinary skill in the art were used. Specifically, the buffer composition was as follows: 20 mM MOPS, 1 mM EDTA, 0.01% Brij-35, 5% Glycerol, 0.1% β-mercaptoethanol, 1 mg/mL BSA. Test compounds were initially dissolved in DMSO at the desired concentration, then serially diluted to the kinase assay buffer. In a final reaction volume of 25 μL FGFR1(h) (5-10 mU) and KDR(h) (5-10 mU) are incubated with 8 mM MOPS pH 7.0, 0.2 mM EDTA, 200 μM LRRASLG (Kemptide), 10 mM magnesium acetate and [γ^33P-ATP]. The reaction was initiated by the addition of the MgATP mix. After incubation for 40 minutes at room temperature, the reaction was stopped by addition of 5 μL of a 3% phosphoric acid solution. Ten L of the reaction was then spotted onto a P30 filter mat and washed three times for 5 minutes in 50 mM phosphoric acid and once in methanol prior to drying and scintillation counting. Wells containing substrate but no kinase and wells containing a phosphopeptide control were used to set 0% and 100% phosphorylation value, respectively.
(§2) Of all of the steps in developing a drug, the hardest is finding promising compounds. (See, e.g., Malo et al., “Statistical practice in high-throughput screening data analysis,” Nature Biotechnology, 2006, 24, 167-75.) Kinase inhibitors often also have an anti-proliferative effect. […] The kinase inhibitory activity Compound 19 was tested using the kinase assay described in Example 3. […] These mutations in the tested kinases are thought to play an important role in transformation of some cancers.

[2] = target: KDR(h) (Homo sapiens, UniProt P35968); test: Kinase assay, KDR(h); type: biochemical
Experimental: as §1, §2

[3] = system: KG1a; test: Inhibition of proliferation (CellTiterblue, 72 hr), KG1a; type: cell-based, human; conditions: Homo sapiens, KG-1a; 72 hr
Experimental: (§3) A number of studies were performed to analyze the consequences of tyrosine kinase inhibition in cell lines. To do this, 1000 cells are seeded in 27 μl/well in 384-well microplates, which are then placed in a humidified CO2 incubator at 37° C. overnight. The next day, 3 μl/well of 10× concentrated drug is added and the plates are returned to the incubator for 72 hr. After 72 hr incubation, plates are removed and 6 μl/well CellTiterblue (Promega) viability reagent is added. Plates are returned to the incubator for 3 hrs, after which fluorescence measurements are read on the Victor X3 plate reader (Perkin Elmer). Data are analyzed using Excel (Microsoft), and GI50 values are determined using Prism (Graphpad).

[4] = system: SNU16; test: Inhibition of proliferation (CellTiterblue, 72 hr), SNU16; type: cell-based; conditions: Homo sapiens, SNU-16, 72 h
Experimental: as §3

[5] = system: Kato III; test: Inhibition of proliferation (CellTiterblue, 72 hr), Kato III; type: cell-based; conditions: Homo sapiens, KATO III, 72 h
Experimental: as §3

[6] = system: RT112; test: Inhibition of proliferation (CellTiterblue, 72 hr), RT112; type: cell-based; conditions: Homo sapiens, RT-112, 72 h
Experimental: as §3

Sequence of KDR(h) (P35968 20-1356): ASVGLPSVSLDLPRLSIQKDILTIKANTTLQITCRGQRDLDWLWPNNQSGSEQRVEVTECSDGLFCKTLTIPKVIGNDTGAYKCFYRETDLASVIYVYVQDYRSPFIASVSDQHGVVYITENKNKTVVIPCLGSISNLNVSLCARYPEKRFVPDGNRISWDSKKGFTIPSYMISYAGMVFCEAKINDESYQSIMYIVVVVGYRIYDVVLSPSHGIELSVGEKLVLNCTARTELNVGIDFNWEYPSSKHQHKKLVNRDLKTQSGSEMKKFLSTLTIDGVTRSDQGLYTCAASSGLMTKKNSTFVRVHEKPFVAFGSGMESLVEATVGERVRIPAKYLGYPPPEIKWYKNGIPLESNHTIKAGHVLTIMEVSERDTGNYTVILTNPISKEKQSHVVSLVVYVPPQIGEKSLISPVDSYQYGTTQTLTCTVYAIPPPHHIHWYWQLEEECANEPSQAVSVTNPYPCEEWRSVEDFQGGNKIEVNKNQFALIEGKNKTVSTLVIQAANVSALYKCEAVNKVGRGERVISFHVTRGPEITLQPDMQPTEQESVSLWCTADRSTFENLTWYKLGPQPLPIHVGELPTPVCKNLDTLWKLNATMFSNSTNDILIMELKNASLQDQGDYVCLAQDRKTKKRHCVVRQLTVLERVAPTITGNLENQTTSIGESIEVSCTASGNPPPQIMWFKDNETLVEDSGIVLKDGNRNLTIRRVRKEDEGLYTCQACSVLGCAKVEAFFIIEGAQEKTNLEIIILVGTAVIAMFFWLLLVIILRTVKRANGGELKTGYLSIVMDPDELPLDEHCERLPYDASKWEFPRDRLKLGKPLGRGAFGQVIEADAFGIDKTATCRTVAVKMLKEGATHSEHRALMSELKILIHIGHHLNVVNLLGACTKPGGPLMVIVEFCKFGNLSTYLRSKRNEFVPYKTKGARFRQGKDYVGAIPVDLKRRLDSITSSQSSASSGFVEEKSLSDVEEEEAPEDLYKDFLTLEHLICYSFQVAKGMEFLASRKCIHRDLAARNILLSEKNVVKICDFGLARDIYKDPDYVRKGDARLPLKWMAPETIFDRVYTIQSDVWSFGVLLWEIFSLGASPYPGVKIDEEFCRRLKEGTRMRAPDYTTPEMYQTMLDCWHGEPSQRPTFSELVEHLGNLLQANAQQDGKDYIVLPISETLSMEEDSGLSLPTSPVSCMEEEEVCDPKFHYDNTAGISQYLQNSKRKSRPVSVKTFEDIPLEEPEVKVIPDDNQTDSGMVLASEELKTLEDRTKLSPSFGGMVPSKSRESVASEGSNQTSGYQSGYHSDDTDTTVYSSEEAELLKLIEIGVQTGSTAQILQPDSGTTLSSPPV
Sequence of FGFR1(h) (P11362 22-822): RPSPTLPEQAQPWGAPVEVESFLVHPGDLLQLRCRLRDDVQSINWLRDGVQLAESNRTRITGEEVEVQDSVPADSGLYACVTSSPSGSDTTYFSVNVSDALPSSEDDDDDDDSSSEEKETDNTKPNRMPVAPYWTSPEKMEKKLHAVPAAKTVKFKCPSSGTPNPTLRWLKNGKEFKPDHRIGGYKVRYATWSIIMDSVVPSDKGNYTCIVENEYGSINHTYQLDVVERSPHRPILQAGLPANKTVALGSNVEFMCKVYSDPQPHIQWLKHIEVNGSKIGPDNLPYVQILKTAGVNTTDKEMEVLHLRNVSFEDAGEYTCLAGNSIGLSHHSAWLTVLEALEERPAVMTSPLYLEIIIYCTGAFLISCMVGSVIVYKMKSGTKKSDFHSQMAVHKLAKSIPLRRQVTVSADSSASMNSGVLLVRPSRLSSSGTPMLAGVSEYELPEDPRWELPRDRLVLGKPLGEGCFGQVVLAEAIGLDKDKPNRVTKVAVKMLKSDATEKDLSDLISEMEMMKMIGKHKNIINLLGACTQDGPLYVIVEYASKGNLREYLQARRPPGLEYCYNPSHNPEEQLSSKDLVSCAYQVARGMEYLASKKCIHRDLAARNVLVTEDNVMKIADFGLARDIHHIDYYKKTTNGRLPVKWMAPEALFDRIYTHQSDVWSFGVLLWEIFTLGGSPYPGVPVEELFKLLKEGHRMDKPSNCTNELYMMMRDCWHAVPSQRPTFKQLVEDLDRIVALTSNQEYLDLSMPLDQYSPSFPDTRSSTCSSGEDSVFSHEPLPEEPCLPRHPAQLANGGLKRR

| SMILES | inhibition at 1 µM [1] | inhibition at 1 µM [2] | GI50 [4] | GI50 [3] | GI50 [5] | GI50 [6] |
| --- | --- | --- | --- | --- | --- | --- |
| COc1cc(N2CCN(C)CC2)ccc1Nc1ncnc(Oc2ccc3[nH]c(C)cc3c2F)c1C#N [Compound 1] | 99% | 96% | – | 49 nM | – | – |
| Cc1cc2c(F)c(Oc3ncnc(Nc4ccc(N5CCN(C)CC5)c(F)c4)c3C#N)ccc2[nH]1 [Compound 2] | 100% | 96% | – | 62 nM | – | – |
| Cc1cc2c(F)c(Oc3ncnc(N4CCN(C)CC4)c3C#N)ccc2[nH]1 [Compound 3] | 1% | 4% | – | – | – | – |
| CCN1CCN(c2ccc(Nc3ncnc(Oc4ccc5[nH]c(C)cc5c4F)c3C(F)F)cc2)CC1 [Compound 5] | 26% | 9% | – | – | – | – |
| Cc1cc2c(F)c(Oc3ncnc(Nc4ccc(C(=O)N5CCN(C)CC5)cc4)c3C#N)ccc2[nH]1 [Compound 6] | 85% | 95% | – | – | – | – |
| Cc1cc2c(F)c(Oc3ncnc(Nc4ccc(N5CCN(C)CC5)c(C(F)(F)F)c4)c3C#N)ccc2[nH]1 [Compound 7] | 49% | 94% | – | – | – | – |
| Cc1cc2c(F)c(Oc3ncnc(Nc4ccc(CN5CCNCC5)cc4)c3C#N)ccc2[nH]1 [Compound 10] | 34% | 23% | – | – | – | – |
| Cc1cc2c(F)c(Oc3ncnc(Nc4ccc(N5CCC(N(C)C)CC5)cc4)c3C#N)ccc2[nH]1 [Compound 11] | 100% | 96% | – | 25 nM | – | – |
| Cc1cc2c(F)c(Oc3ncnc(Nc4ccc(-n5ccnc5)cc4)c3C#N)ccc2[nH]1 [Compound 12] | 56% | 67% | – | – | – | – |
| Cc1cc2c(F)c(Oc3ncnc(Nc4ccc(-n5ccnc5C)cc4)c3C#N)ccc2[nH]1 [Compound 13] | 48% | 85% | – | – | – | – |
| Cc1cc2c(F)c(Oc3ncnc(Nc4ccc(C)c(S(N)(=O)=O)c4)c3C#N)ccc2[nH]1 [Compound 15] | 94% | 96% | – | – | – | – |
| Cc1cc2c(F)c(Oc3ncnc(Nc4ccc(N5C[C@@H](C)N[C@@H](C)C5)c(F)c4)c3C#N)ccc2[nH]1 [Compound 16] | 100% | 96% | – | 15 nM | – | – |
| Cc1cc2c(F)c(Oc3ncnc(Nc4ccc(N5CCN(CC(F)(F)F)CC5)cc4)c3C#N)ccc2[nH]1 [Compound 18] | 76% | 92% | – | – | – | – |
| CCN1CCN(c2cccc(Nc3ncnc(Oc4ccc5[nH]c(C)cc5c4F)c3C#N)c2)CC1 [Compound 22] | 100% | 96% | – | 196 nM | – | – |
| Cc1cc2c(F)c(Oc3ncnc(Nc4ccccc4)c3C#N)ccc2[nH]1 [Compound 23] | 98% | 96% | – | – | – | – |
| Cc1cc2c(F)c(Oc3ncnc(Nc4ccc(N5CCCCC5)cc4)c3C#N)ccc2[nH]1 [Compound 24] | 86% | 95% | – | – | – | – |
| Cc1cc2c(F)c(Oc3ncnc(Nc4ccc(NS(C)(=O)=O)cc4)c3C#N)ccc2[nH]1 [Compound 26] | 97% | 96% | – | – | – | – |
| Cc1cc2c(F)c(Oc3ncnc(Nc4ccc(N5CCNC(=O)C5)cc4)c3C#N)ccc2[nH]1 [Compound 27] | 99% | 97% | – | – | – | – |
| Cc1cc2c(F)c(Oc3ncnc(Nc4ccc(N5CCCS5(=O)=O)cc4)c3C#N)ccc2[nH]1 [Compound 28] | 99% | 96% | – | 226 nM | – | – |
| CCOc1ccc(Nc2ncnc(Oc3ccc4[nH]c(C)cc4c3F)c2C#N)cc1 [Compound 29] | 91% | 95% | – | – | – | – |
| Cc1cc2c(F)c(Oc3ncnc(Nc4ccc(C5CCNCC5)cc4)c3C#N)ccc2[nH]1 [Compound 30] | 91% | 94% | – | – | – | – |
| Cc1cc2c(F)c(Oc3ncnc(Nc4ccc(N5C[C@@H](C)N[C@@H](C)C5)nc4)c3C#N)cc(F)c2[nH]1 [Compound 61] | – | – | 75 nM | 4 nM | – | – |

Second part, led by results:

| inhibition at 1 µM [1] | inhibition at 1 µM [2] | GI50 [4] | SMILES | GI50 [3] | GI50 [5] | GI50 [6] |
| --- | --- | --- | --- | --- | --- | --- |
| 97% | 96% | – | CCN1CCN(c2ccc(Nc3ncnc(Oc4ccc5[nH]c(C)cc5c4F)c3C#N)cc2F)CC1 [Compound 8] | 250 nM | – | – |
| 100% | 96% | – | Cc1cc2c(F)c(Oc3ncnc(Nc4ccc(N5CCNCC5)c(F)c4)c3C#N)ccc2[nH]1 [Compound 9] | 314 nM | – | – |
| 70% | 42% | – | Cc1cc2c(F)c(Oc3ncnc(Nc4ccc(N5CCN(CC(F)(F)F)CC5)cc4)c3C#N)cc(F)c2[nH]1 [Compound 20] | – | – | – |
| 100% | 96% | – | Cc1cc2c(F)c(Oc3ncnc(Nc4cccc(N5CCOCC5)c4)c3C#N)ccc2[nH]1 [Compound 21] | – | – | – |
| 99% | 96% | – | CC(=O)Nc1ccc(Nc2ncnc(Oc3ccc4[nH]c(C)cc4c3F)c2C#N)cc1 [Compound 25, N-(4-((5-cyano-6-((4-fluoro-2-methyl-1H-indol-5-yl)oxy)pyrimidin-4-yl)amino)phenyl)acetamide] | 30 nM | – | – |
| 102% | 95% | 32 nM | Cc1cc2c(F)c(Oc3ncnc(Nc4ccc(N5CCN(CCO)CC5)cc4)c3C#N)cc(F)c2[nH]1 [Compound 31] | 0.35 nM | 205 nM | 171 nM |
| 92% | 69% | – | CC(=O)N(C)c1ccc(Nc2ncnc(Oc3cc(F)c4[nH]c(C)cc4c3F)c2C#N)cc1 [Compound 32] | – | – | – |
| 100% | 95% | – | Cc1cc2c(F)c(Oc3ncnc(Nc4ccc(NC(=O)C5CC5)cc4)c3C#N)cc(F)c2[nH]1 [Compound 35] | 78 nM | – | – |
| 99% | 67% | – | Cc1cc2c(F)c(Oc3ncnc(Nc4ccc(C(N)=O)cc4)c3C#N)cc(F)c2[nH]1 [Compound 36] | 182 nM | – | – |
| 99% | 70% | – | CNC(=O)c1ccc(Nc2ncnc(Oc3cc(F)c4[nH]c(C)cc4c3F)c2C#N)cc1 [Compound 37] | – | – | – |
| 90% | 73% | – | Cc1cc2c(F)c(Oc3ncnc(Nc4ccc(C(=O)N(C)C)cc4)c3C#N)cc(F)c2[nH]1 [Compound 38] | – | – | – |
| 91% | 36% | – | Cc1cc2c(F)c(Oc3ncnc(Nc4ccc(F)cc4)c3C#N)cc(F)c2[nH]1 [Compound 39] | – | – | – |
| 78% | 20% | – | Cc1cc2c(F)c(Oc3ncnc(Nc4ccc(Cl)cc4)c3C#N)cc(F)c2[nH]1 [Compound 40] | – | – | – |
| 101% | 96% | – | Cc1cc2c(F)c(Oc3ncnc(Nc4ccc(N5CCCC5=O)cc4)c3C#N)cc(F)c2[nH]1 [Compound 41] | 180 nM | – | – |
| 101% | 96% | – | Cc1cc2c(F)c(Oc3ncnc(Nc4ccc5[nH]ccc5c4)c3C#N)cc(F)c2[nH]1 [Compound 42] | 35 nM | – | – |
| 97% | 76% | – | Cc1cc2c(F)c(Oc3ncnc(Nc4ccccc4O)c3C#N)cc(F)c2[nH]1 [Compound 43] | – | – | – |
| 41% | 14% | – | Cc1cc2c(F)c(Oc3ncnc(Nc4ccc([N+](=O)[O-])cc4)c3C#N)cc(F)c2[nH]1 [Compound 44] | – | – | – |
| 101% | 91% | – | CCC(=O)Nc1cccc(Nc2ncnc(Oc3cc(F)c4[nH]c(C)cc4c3F)c2C#N)c1 [Compound 52] | 174 nM | – | – |
| 89% | 17% | – | COC(=O)c1ccc(Nc2ncnc(Oc3cc(F)c4[nH]c(C)cc4c3F)c2C#N)cc1 [Compound 54] | – | – | – |
| 55% | 6% | – | Cc1cc2c(F)c(Oc3ncnc(Nc4ccc(C#N)cc4)c3C#N)cc(F)c2[nH]1 [Compound 55] | – | – | – |
| – | – | 6 nM | CCC(=O)Nc1ccc(Nc2ncnc(Oc3cc(F)c4[nH]c(C)cc4c3F)c2C#N)cc1 [Compound 57] | 15 nM | – | – |
| – | – | 122 nM | Cc1cc2c(F)c(Oc3ncnc(Nc4ccc(NC(=O)CN5CCOCC5)cc4)c3C#N)cc(F)c2[nH]1 [Compound 58] | 101 nM | – | – |
| – | – | 79 nM | Cc1cc2c(F)c(Oc3ncnc(Nc4ccc(NC(=O)CN5CCN(C)CC5)cc4)c3C#N)cc(F)c2[nH]1 [Compound 59] | 31 nM | – | – |
| – | – | 92 nM | C/C=C/C(=O)Nc1ccc(Nc2ncnc(Oc3cc(F)c4[nH]c(C)cc4c3F)c2C#N)cc1 [Compound 60] | 101 nM | – | – |
